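Values below derive from 48-hour exposures of cells grown in 96-well plates, with endpoints linearly interpolated between the two concentrations bracketing the appropriate inhibition level. TGI: concentration producing complete growth inhibition.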
Columns and labels:
Experiment in all cases: NCI-60 cell line screen, 48 h
[1] = system: EKVX NSCLC
[2] = system: LOX IMVI melanoma
[3] = system: 786-0 renal
[4] = system: UACC-62 melanoma
[5] = system: DMS 273 small cell lung
[6] = system: XF 498 CNS
[7] = system: SNB-78 CNS
[8] = system: ACHN renal
[9] = system: MOLT-4 leukemia
[10] = system: DMS 114 small cell lung
[11] = system: A549 NSCLC
[12] = system: SNB-19 CNS
[13] = system: SK-MEL-5 melanoma
[14] = system: SW-620 colon
[15] = system: HL-60(TB) leukemia
[16] = system: M19-MEL melanoma
[17] = system: SR leukemia
[18] = system: NCI-H522 lung
[19] = system: SK-MEL-28 melanoma
[20] = system: SN12C renal
[21] = system: RXF 393 renal
[22] = system: SF-539 CNS
[23] = system: M14 melanoma
[24] = system: OVCAR-4 ovarian
[25] = system: HCT-15 colon
[26] = system: SK-OV-3 ovarian
[27] = system: CAKI-1 renal
[28] = system: NCI-H460 lung
[29] = system: SNB-75 CNS
[30] = system: RXF-631 renal
[31] = system: MALME-3M melanoma
[32] = system: OVCAR-3 ovarian
[33] = system: SF-295 CNS
[34] = system: RPMI-8226 leukemia
[35] = system: OVCAR-5 ovarian
[36] = system: NCI-H23 lung
[37] = system: HOP-92 NSCLC
[38] = system: UO-31 renal
[39] = system: U251 CNS
[40] = system: KM20L2 colon
[41] = system: OVCAR-8 ovarian
[42] = system: HCC-2998 colon
[43] = system: KM12 colon
[44] = system: K-562 leukemia
[45] = system: IGROV1 ovarian
[46] = system: HOP-62 NSCLC
[47] = system: HCT-116 colon
[48] = system: HT29 colon
[49] = system: A498 renal
[50] = system: UACC-257 melanoma
[51] = system: SF-268 CNS
[52] = system: DLD-1 colon
[53] = system: LXFL 529 NSCLC
[54] = system: COLO 205 colon
[55] = system: NCI-H226 lung
[56] = system: CCRF-CEM leukemia
[57] = system: TK-10 renal
[58] = system: SK-MEL-2 melanoma

## CCCCCNC(=O)CCCCCCCCCCCNC(=O)CCCCCCCCCCN1C=CC(=CC=C2C=CC(=O)C=C2)C=C1
[1]
  TGI: > 100 µM
[2]
  TGI: > 100 µM
[3]
  TGI: > 100 µM
[4]
  TGI: > 100 µM
[5]
  TGI: > 100 µM
[6]
  TGI: > 100 µM
[7]
  TGI: 96.9 µM
[8]
  TGI: > 100 µM
[9]
  TGI: > 100 µM
[10]
  TGI: > 100 µM
[11]
  TGI: > 100 µM
[12]
  TGI: > 100 µM
[13]
  TGI: > 100 µM
[14]
  TGI: > 100 µM
[15]
  TGI: 8.83 µM
[16]
  TGI: > 100 µM
[17]
  TGI: > 100 µM
[18]
  TGI: > 100 µM
[19]
  TGI: > 100 µM
[20]
  TGI: > 100 µM
[21]
  TGI: > 100 µM
[22]
  TGI: > 100 µM
[23]
  TGI: > 100 µM
[24]
  TGI: > 100 µM
[25]
  TGI: > 100 µM
[26]
  TGI: > 100 µM
[27]
  TGI: > 100 µM
[28]
  TGI: > 100 µM
[29]
  TGI: 68.3 µM
[30]
  TGI: > 100 µM
[31]
  TGI: > 100 µM
[32]
  TGI: > 100 µM
[33]
  TGI: > 100 µM
[34]
  TGI: > 100 µM
[35]
  TGI: > 100 µM
[36]
  TGI: > 100 µM
[37]
  TGI: 55.1 µM
[38]
  TGI: > 100 µM
[39]
  TGI: > 100 µM
[40]
  TGI: > 100 µM
[41]
  TGI: > 100 µM
[42]
  TGI: > 100 µM
[43]
  TGI: > 100 µM
[44]
  TGI: > 100 µM
[45]
  TGI: > 100 µM
[46]
  TGI: > 100 µM
[47]
  TGI: > 100 µM
[48]
  TGI: > 100 µM
[49]
  TGI: > 100 µM
[50]
  TGI: 88.7 µM
[51]
  TGI: > 100 µM
[52]
  TGI: > 100 µM
[53]
  TGI: > 100 µM
[54]
  TGI: 28.6 µM
[55]
  TGI: > 100 µM
[56]
  TGI: > 100 µM

## CC1=N/C(=C\c2ccc(C)cc2)C(=O)O1
[4]
  TGI: > 100 µM
[6]
  TGI: > 100 µM
[7]
  TGI: > 100 µM
[9]
  TGI: > 100 µM
[12]
  TGI: > 100 µM
[13]
  TGI: > 100 µM
[14]
  TGI: > 100 µM
[16]
  TGI: > 100 µM
[17]
  TGI: > 100 µM
[18]
  TGI: > 100 µM
[19]
  TGI: > 100 µM
[20]
  TGI: > 100 µM
[21]
  TGI: > 100 µM
[23]
  TGI: > 100 µM
[24]
  TGI: > 100 µM
[25]
  TGI: > 100 µM
[26]
  TGI: > 100 µM
[27]
  TGI: > 100 µM
[31]
  TGI: > 100 µM
[32]
  TGI: > 100 µM
[33]
  TGI: > 100 µM
[35]
  TGI: > 100 µM
[57]
  TGI: > 100 µM
[36]
  TGI: > 100 µM
[37]
  TGI: > 100 µM
[38]
  TGI: > 100 µM
[39]
  TGI: > 100 µM
[40]
  TGI: > 100 µM
[41]
  TGI: > 100 µM
[42]
  TGI: > 100 µM
[43]
  TGI: > 100 µM
[44]
  TGI: > 100 µM
[58]
  TGI: > 100 µM
[45]
  TGI: > 100 µM
[48]
  TGI: > 100 µM
[52]
  TGI: > 100 µM
[53]
  TGI: > 100 µM
[54]
  TGI: > 100 µM
[56]
  TGI: > 100 µM
